Values quoted from earlier work as cited in patent US12605340B2, “Extended release composition of 2-(2-Aminothiazol-4-yl)-N-[4-(2{[(2R)-2-hydroxy-2-phenylethyl] amino} ethyl) phenyl] acetamide” (Zim Laboratories Limited, priority 2020, dated 2026).
Read-outs that look alike come from different tables or passages of the source.

Nc1nc(CC(=O)Nc2ccc(CCNC[C@H](O)c3ccccc3)cc2)cs1 [Mirabegron, 2(2-aminothiazol-4-yl)-N-[4-(2-{[(2R)-2-hydroxy2phenylethyl]amino}ethyl)phenyl] acetamide]
Solubility (in dimethyl sulfoxide): soluble
Solubility (in methanol): soluble
Solubility (in water): practically insoluble
